# According to BindingDB's records for doi:10.1021/jm010853h (Sapienza University of Rome, 2001):
# Target: T1, Gag-Pol polyprotein [588-1027]/[588-1147] (Human immunodeficiency virus 1, UniProt P04585)
# T1 construct: 588-1027; 588-1147
# Experiment: HIV-1 RT Assay
# Details: pH 7.8; 37 °C
structure (smiles),measurement,value
"CCC(c1ccccc1)c1cc(=O)[nH]c(SC2CCCC2)n1 (stereo unspecified) [2-(cyclopentylsulfanyl)-6-(1-phenylpropyl)-3,4-dihydropyrimidin-4-one]",IC50,> 10 µM
